Test results published in US6696559B1, “Antimicrobial peptides and methods of use” (The Regents of the University of California, priority 1996, dated 2004).
Entries after “also recorded” stand apart in the source; their conditions may differ. Where no end group is shown, it is not given here.

How the values were obtained:
C. albicans = assay: microbicidal suspension assay; assay type: cell-based
Procedure: (§1) Antimicrobial assay. E. coli ML35, S. aureus 502A, C. albicans, and C. neoformans were used as target organisms in a microbicidal suspension assay as previously described (Selsted, M. E., Genetic Engineering: Principles and Methods, J. K. Setlow, Plenum Press, New York, 1993, pp. 131-147).
(§2) Natural and synthetic BGP-A and synthetic BGP-A-amide were tested for their microbicidal activities against S. aureus 502A, E. coli ML35, C. albicans, and C. neoformans. Using a microbicidal suspension assay (Selsted, M. E., Genetic Engineering: Principles and Methods, J. K. Setlow, Plenum Press, New York, 1993, pp.131-147), each peptide was tested against the four test organisms with peptide concentrations ranging from 5-100 μg/ml. The bactericidal and fungicidal activities of the three peptide preparations were assessed using a standard microbicidal assay. Organisms were grown to mid-log phase, harvested, and suspended to 2×10^7 CFU/ml. The incubation mixture contained 1-2×10^6 CFU/ml, 10 mM sodium phosphate buffer, pH 7.4, and peptide at concentrations up to 100 μg/ml. After 1 h of incubation at 37° C. (4 h incubations for C. neoformans), serial 10-fold dilutions were plated on Trypticase Soy Agar (bacteria) or S. abaraud dextrose agar (fungi), and incubated for 24-48 h at 37° C. Killing was quantitated by colony counting, and plotted as a function of peptide concentration in the incubation.

C. neoformans = assay: microbicidal suspension assay; assay type: cell-based
Procedure: as §1, §2

E. coli ML35 = assay: microbicidal suspension assay; assay type: cell-based
Procedure: as §1, §2

S. aureus 502A = assay: microbicidal suspension assay; assay type: cell-based
Procedure: as §1, §2

E. coli = details: Selsted et al., J. Biol. Chem. 267:4292-4295, 1992; cited from earlier work
S. aureus = details: Selsted et al., J. Biol. Chem. 267:4292-4295, 1992; cited from earlier work
[1] = 1 h incubation, synthetic versus natural peptide, listed as synthetic BGP-A
[2] = peptide 5-100 μg/ml, 10 mM sodium phosphate buffer, pH 7.4, 1 h at 37° C., FIG. 7

Row | Substance | microbicidal potency compared with natural BGP-A (C. albicans; [1]) | microbicidal activity (reduction in colony forming units) (C. albicans; [2]) | microbicidal potency compared with natural BGP-A (C. neoformans; 4 h incubation, synthetic versus natural peptide, listed as synthetic BGP-A) | microbicidal activity (reduction in colony forming units) (C. neoformans; peptide 5-100 μg/ml, 10 mM sodium phosphate buffer, pH 7.4, 4 h at 37° C., FIG. 7) | microbicidal potency compared with natural BGP-A (E. coli ML35; [1]) | microbicidal activity (reduction in colony forming units) (E. coli ML35; [2]) | microbicidal potency compared with natural BGP-A (S. aureus 502A; [1]) | microbicidal activity (reduction in colony forming units) (S. aureus 502A; [2]) | bactericidal activity (E. coli) | bactericidal activity (S. aureus)
1 | YKIIQQWPHYRRV [BGP-A, thirteen-residue peptide antibiotic expressed in bovine granulocytes, …; tested as natural and synthetic preparations] | equal in potency; also recorded: equivalent killing activity | microbicidal | equal in potency; also recorded: equivalent killing activity | microbicidal | equal in potency; also recorded: equivalent killing activity | microbicidal | equal in potency; also recorded: equivalent killing activity | microbicidal |  | 
2 | indolicidin: novel tridecapeptide amide from bovine neutrophils, cationic, unusually rich in tryptophan (ILPWKWPWWPWRR-NH2; UniProt P33046 131-143, looked up) |  |  |  |  |  |  |  |  | potent bactericidal activity | potent bactericidal activity
